Experimental data taken from ChEMBL document CHEMBL1201862, “PubChem BioAssay data set” (2004).
Active and inactive are the calls of the source.

Tests used:
[1] = target: Sphingosine 1-phosphate receptor 2 (Homo sapiens, UniProt O95136); experiment: Dose Response Cell Based Assay for Agonists of the S1P2 Receptor of Purchased Analogues. [Related pubchem assays: 729, 843, 854, 736 ]; format: functional
[2] = Luminescence Cell-Based Dose Response HTS to Identify Activators of Luciferase Translation or Activity in H4 […] Cells. [Related pubchem assays: 1829 (Project Summary), 1814 (Primary HTS)]; format: functional
[3] = target: T1, Calpain-2 catalytic subunit (Sus scrofa, UniProt P43367); experiment: pig calpain II inhibitor potency, dose response, biochemical, fluorogenic peptide substrate (AID 1420); format: functional
T1 sequence (P43367 whole entry): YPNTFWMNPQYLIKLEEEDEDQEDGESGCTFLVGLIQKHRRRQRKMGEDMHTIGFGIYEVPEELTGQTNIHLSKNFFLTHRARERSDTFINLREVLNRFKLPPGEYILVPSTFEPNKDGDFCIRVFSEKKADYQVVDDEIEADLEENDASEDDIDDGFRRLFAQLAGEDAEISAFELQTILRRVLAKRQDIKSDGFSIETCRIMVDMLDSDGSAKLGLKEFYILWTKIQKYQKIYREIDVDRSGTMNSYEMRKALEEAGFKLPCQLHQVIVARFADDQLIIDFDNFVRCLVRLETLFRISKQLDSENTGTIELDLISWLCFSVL

[4] = Luminescence Cell-Based Dose Response to Identify Activators of Luciferase Translation or Activity in H4-C Neuroglioblastoma Cells. [Related pubchem assays: 1829 (Project Summary), 1814 (Primary HTS)]; format: functional
[5] = Luminescence Cell-Based Dose Confirmation to Identify Activators of 5'UTR Stem-Loop Driven Alpha-Synuclein mRNA Translation in H4 Neuroglioblastoma Cells. [Related pubchem assays: 1829 (Project Summary), 1814 (Primary HTS)]; format: functional
HT-1080 = experiment: cytotoxicity in HT1080 fibrosarcoma cells, cell-based, fluorescence readout (AID 620); format: functional; settings: Homo sapiens
[6] = Luminescence Cell-Based Dose Response to Identify Activators of 5'UTR Stem-Loop Driven Prion Protein mRNA Translation in H4-C Neuroglioblastoma Cells. [Related pubchem assays: 1829 (Project Summary), 1814 (Primary HTS)]; format: functional
[7] = target: Luciferin 4-monooxygenase (Photinus pyralis, UniProt P08659); experiment: Counter Screen for Luciferase-based Assay Positives. [Related pubchem assays: 620, 618, 411 ]
Sequence of Luciferin 4-monooxygenase (P08659 whole entry): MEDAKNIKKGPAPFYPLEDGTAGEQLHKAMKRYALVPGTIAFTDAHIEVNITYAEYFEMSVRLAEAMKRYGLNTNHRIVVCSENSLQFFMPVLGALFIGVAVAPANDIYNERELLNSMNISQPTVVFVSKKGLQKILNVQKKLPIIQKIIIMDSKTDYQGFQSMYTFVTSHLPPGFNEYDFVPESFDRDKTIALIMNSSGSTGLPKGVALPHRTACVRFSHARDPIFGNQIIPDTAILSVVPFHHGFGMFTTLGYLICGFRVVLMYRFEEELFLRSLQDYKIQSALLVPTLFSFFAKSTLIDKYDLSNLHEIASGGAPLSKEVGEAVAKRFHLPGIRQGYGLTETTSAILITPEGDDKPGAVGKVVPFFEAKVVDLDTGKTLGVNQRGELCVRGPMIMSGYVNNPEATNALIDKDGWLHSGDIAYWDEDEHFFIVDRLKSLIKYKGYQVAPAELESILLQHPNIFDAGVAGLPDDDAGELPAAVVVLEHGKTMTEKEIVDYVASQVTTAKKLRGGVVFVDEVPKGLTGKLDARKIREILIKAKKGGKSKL

[8] = microbe, parasite or virus in culture; format: functional; settings: Mycobacterium tuberculosis
[9] = A High Throughput Confirmatory Assay used to Identify Novel Compounds that Inhibit Mycobacterium Tuberculosis in the absence of Glycerol.; format: functional
[10] = target: 5-hydroxytryptamine receptor 1E (Homo sapiens, UniProt P28566); experiment: Counterscreen assay for S1P3 antagonists: Dose response cell-based high throughput screening assay to identify antagonists of the 5-Hydroxytryptamine Receptor Subtype 1E (5HT1E). [Related pubchem assays: 1429, 485 ]; format: functional
Sequence of 5-hydroxytryptamine receptor 1E (P28566 whole entry): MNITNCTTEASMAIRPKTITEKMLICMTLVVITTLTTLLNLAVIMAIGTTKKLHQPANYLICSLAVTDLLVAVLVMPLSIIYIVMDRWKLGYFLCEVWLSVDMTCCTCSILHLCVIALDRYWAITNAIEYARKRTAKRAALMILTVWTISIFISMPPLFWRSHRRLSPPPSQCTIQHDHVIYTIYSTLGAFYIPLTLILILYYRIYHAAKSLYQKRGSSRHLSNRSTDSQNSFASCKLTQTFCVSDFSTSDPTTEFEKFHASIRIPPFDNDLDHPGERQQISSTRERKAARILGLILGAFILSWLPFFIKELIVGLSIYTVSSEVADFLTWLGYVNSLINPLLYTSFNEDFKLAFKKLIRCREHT

[11] = target: Sphingosine 1-phosphate receptor 3 (Homo sapiens, UniProt Q99500); experiment: Dose response cell-based high throughput screening assay for antagonists of the Sphingosine 1-Phosphate Receptor 3 (S1P3). [Related pubchem assays: 1429, 485 ]; format: functional
Sequence of Sphingosine 1-phosphate receptor 3 (Q99500 whole entry, the tested form may be a part): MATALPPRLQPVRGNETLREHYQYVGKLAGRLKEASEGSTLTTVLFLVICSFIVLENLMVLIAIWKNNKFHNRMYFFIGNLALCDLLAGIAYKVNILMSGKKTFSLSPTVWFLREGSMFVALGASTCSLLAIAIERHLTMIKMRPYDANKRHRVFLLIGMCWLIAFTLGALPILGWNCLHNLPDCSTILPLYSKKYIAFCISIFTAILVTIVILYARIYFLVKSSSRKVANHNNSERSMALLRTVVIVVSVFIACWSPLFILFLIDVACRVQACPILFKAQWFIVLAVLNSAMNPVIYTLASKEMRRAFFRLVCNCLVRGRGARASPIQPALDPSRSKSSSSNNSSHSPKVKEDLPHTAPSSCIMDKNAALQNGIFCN

[12] = inhibitors of HIV Env-driven cell fusion, dose response, cherry-pick (AID 652057); format: functional, cell-based
Ion channel NompC = Ion channel NompC (Danio rerio, UniProt Q7T1G6); experiment: Fluorescence counterscreen assay for TRPML3 agonists: dose response cell-based high-throughput screening assay to identify agonists of the transient receptor potential channel N1 (TRPN1). [Related pubchem assays: 1526, 1424, 1448 ]; format: functional
[13] = off-target signal loss in HeLa-CEM21 co-culture – HeLa F-luc CTL cells, cherry-picked, counter-screen for HIV-1 Env fusion inhibitor project, dose response (AID 652040); format: functional, cell-based;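 further: potency for signal decrease marking cytotoxic or nonspecific inhibition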
[14] = ZM109 Env clade C HIV-1 fusion inhibitors, dose response, HeLa effector, CEM target cells, luciferase, cherry-pick (AID 652058); format: functional, cell-based
[15] = inhibitors of clade B AD8 Env fusion, dose response, cell-based, cherry-pick (AID 652062); format: functional;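 further: luciferase signal from cell-cell fusion driven by HIV-1 clade B AD8 Env; potency is for inhibitors of fusion seen as a drop in luminescence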
Mucolipin-3 = Mucolipin-3 (Homo sapiens, UniProt Q8TDD5); experiment: Dose response cell-based high-throughput screening assay for agonists of the transient receptor potential channel ML3 (TRPML3). [Related pubchem assays: 1526, 1424, 1448 ]; format: functional
Sequence of Mucolipin-3 (Q8TDD5 whole entry): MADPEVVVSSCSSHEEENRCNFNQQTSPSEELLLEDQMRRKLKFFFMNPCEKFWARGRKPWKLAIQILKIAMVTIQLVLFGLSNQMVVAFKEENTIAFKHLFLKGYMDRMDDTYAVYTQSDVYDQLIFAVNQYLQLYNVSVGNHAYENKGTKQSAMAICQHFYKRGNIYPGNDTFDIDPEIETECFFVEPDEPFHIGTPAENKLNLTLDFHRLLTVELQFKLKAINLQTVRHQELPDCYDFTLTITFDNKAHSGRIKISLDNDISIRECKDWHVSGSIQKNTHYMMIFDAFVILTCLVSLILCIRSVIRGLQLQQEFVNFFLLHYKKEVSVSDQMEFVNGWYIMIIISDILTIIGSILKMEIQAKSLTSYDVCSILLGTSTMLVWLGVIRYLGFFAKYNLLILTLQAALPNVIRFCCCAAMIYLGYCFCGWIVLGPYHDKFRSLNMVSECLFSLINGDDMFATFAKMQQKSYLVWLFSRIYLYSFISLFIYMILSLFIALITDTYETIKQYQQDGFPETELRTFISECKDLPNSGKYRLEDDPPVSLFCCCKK

[16] = target: Lytic switch protein BZLF1 (Epstein-Barr virus (strain B95-8) (HHV-4) (Human herpesvirus 4), UniProt P03206); experiment: EBV ZTA inhibitors, dose response, counter-screen for EBNA-1 inhibitor project, biochemical, fluorescence polarization, Epstein-Barr virus, 1536-well (AID 2377); set-up: species or system human gammaherpesvirus 4;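 further: fluorescence polarization of Cy5-labelled ZRE DNA probe bound by purified Zta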
Sequence of Lytic switch protein BZLF1 (P03206 whole entry): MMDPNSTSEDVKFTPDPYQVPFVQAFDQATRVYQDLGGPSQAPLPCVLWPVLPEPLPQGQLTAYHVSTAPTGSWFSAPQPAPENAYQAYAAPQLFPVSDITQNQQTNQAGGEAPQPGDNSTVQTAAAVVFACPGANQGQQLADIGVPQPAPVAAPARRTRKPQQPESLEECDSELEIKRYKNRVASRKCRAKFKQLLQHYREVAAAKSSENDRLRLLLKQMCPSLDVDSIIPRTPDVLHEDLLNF

[17] = target: Epstein-Barr nuclear antigen 1 (Epstein-Barr virus (strain B95-8) (HHV-4) (Human herpesvirus 4), UniProt P03211); experiment: EBNA-1 inhibitors, dose response, biochemical, fluorescence polarization, 1536-well (AID 2381); set-up: species or system human gammaherpesvirus 4;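 further: fluorescence polarization of a Cy5 DNA probe bound by EBNA-1 protein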
Sequence of Epstein-Barr nuclear antigen 1 (P03211 whole entry): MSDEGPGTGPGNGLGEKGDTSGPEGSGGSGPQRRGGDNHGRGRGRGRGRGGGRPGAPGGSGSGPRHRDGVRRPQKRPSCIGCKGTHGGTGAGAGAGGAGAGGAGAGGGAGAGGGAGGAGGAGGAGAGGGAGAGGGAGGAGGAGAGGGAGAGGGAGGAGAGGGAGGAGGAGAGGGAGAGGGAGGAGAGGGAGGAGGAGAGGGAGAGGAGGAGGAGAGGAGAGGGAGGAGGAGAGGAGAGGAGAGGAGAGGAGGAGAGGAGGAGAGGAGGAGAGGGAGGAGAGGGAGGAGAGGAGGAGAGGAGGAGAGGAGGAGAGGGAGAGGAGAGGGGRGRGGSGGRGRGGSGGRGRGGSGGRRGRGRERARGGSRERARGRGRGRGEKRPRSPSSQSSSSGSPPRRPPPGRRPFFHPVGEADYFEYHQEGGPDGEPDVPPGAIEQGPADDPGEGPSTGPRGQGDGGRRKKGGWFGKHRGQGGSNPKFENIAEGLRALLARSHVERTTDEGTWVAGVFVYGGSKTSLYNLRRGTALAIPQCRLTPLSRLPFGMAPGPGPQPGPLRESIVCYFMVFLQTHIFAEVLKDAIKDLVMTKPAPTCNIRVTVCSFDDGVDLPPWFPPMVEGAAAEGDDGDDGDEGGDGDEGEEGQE

Streptococcus [18] = experiment: Group A Streptococcus viability loss, dose response, counter-screen for streptokinase expression inhibitor project, luminescence, BacTiterGlo (AID 1915); format: functional, organism-based;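 further: potency for reduction of bacterial viability or growth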
Streptokinase A [19] = target: T2, Streptokinase A (Streptococcus pyogenes serotype M1, UniProt P10520); experiment: Absorbance Microorganism-Based Dose Response Follow up to Identify Inhibitors of Streptokinase Expression. [Related pubchem assays: 1677 (Project Summary), 1915, 1914, 1902 (Retest at Dose), 1900 (Counter Screen), 1662 (Primary HTS)]; format: functional, Streptococcus pyogenes M1 GAS
T2 sequence (P10520 whole entry): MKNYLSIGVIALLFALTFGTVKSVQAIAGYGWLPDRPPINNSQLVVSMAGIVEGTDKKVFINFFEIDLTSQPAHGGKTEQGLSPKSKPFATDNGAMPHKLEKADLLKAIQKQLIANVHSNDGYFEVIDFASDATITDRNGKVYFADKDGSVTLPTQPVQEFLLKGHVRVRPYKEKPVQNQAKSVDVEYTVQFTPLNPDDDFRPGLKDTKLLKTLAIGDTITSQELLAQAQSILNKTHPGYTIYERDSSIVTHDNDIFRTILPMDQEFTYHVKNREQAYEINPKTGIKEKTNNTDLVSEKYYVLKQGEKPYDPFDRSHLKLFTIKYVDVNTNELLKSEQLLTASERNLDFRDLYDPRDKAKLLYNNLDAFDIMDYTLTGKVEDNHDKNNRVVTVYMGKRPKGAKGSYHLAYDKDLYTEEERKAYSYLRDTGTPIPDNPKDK

Streptococcus [20] = experiment: Luminescence Microorganism-Based Dose Response Follow up to Identify Compounds Cytotoxic to Streptococcus. [Related pubchem assays: 1677 (Project Summary), 1915, 1914, 1902 (Retest at Dose), 1900 (Counter Screen), 1662 (Primary HTS)]; format: functional, organism-based
[21] = Jurkat T cell cytotoxicity, dose response, cytotoxicity control for P. falciparum gametocyte viability project, luminescence (AID 1117277); format: functional, cell-based;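 further: potency reflects loss of cellular ATP meaning fewer viable cells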
[22] = Absorbance Microorganism-Based Dose Response Follow up to Identify Inhibitors of Streptokinase Expression. [Related pubchem assays: 1677 (Project Summary), 1915, 1914, 1902 (Retest at Dose), 1900 (Counter Screen), 1662 (Primary HTS)]
Streptokinase A [23] = target: T2, Streptokinase A; experiment: S. pyogenes streptokinase expression inhibitors, potency, dose response, plasminogen activation absorbance, OD405 (AID 1914); format: functional, Streptococcus pyogenes M1 GAS;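 further: secreted streptokinase activity via plasminogen activation per viability signal from cell pellet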
Cytochrome P450 2C9 = Cytochrome P450 2C9 (Homo sapiens, UniProt P11712)
Sequence of Cytochrome P450 2C9 (P11712 whole entry): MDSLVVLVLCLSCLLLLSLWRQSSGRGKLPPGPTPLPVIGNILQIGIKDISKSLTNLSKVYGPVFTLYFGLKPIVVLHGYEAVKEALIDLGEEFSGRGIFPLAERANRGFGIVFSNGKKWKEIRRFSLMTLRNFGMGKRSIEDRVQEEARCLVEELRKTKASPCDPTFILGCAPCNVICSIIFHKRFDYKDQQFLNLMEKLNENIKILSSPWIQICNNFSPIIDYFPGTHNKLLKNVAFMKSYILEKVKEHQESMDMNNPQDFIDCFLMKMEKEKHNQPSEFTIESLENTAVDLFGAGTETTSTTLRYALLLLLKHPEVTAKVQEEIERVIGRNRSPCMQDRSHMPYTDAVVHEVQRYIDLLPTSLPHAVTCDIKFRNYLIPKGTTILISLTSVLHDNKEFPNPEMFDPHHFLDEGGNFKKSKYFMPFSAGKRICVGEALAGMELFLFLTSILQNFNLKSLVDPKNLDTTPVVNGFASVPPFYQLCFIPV

[24] = tested on: Streptococcus sp. 'group A'; experiment: growth inhibition of control SK(-) GAS strain, dose response, counter-screen for streptokinase expression inhibitor project, luminescence, kanamycin, BacTiterGlo, confirmation (AID 1900); format: functional, organism-based
[25] = P. falciparum late gametocyte killing, dose response, luminescence (AID 1117278); format: functional, cell-based;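 further: gametocytes exposed to compound for 24 hours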
NADPH oxidase 1 [26] = target: T3, NADPH oxidase 1 (Homo sapiens, UniProt Q9Y5S8); experiment: Luminescence-based cell-based dose response assay to identify inhibitors of NADPH oxidase 1 (NOX1).; format: functional
T3 sequence (Q9Y5S8 whole entry): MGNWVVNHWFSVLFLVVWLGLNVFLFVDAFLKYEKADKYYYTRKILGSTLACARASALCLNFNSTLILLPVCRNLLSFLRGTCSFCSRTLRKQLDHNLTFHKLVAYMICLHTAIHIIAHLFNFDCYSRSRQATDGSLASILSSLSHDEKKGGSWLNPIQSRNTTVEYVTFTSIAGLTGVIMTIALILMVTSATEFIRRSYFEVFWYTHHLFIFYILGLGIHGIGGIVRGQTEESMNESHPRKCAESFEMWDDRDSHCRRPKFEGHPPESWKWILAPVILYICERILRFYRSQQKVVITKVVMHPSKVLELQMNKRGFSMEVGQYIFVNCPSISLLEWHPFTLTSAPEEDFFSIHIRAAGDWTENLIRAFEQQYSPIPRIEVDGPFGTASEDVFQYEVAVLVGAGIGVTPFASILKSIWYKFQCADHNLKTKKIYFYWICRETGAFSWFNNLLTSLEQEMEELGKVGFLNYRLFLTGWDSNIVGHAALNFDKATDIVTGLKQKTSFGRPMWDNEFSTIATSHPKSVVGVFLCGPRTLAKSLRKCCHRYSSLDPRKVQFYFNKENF

NADPH oxidase 1 [27] = target: T3, NADPH oxidase 1; format: functional, cell-based
[28] = target: T4, Rac GTPase-activating protein 1 (Homo sapiens, UniProt Q9H0H5); experiment: MgcRacGAP GTPase-activating activity inhibitors, confirmation, biochemical, ADP Hunter fluorescence, primary and confirmatory (AID 624330); format: functional
T4 sequence (Q9H0H5 whole entry): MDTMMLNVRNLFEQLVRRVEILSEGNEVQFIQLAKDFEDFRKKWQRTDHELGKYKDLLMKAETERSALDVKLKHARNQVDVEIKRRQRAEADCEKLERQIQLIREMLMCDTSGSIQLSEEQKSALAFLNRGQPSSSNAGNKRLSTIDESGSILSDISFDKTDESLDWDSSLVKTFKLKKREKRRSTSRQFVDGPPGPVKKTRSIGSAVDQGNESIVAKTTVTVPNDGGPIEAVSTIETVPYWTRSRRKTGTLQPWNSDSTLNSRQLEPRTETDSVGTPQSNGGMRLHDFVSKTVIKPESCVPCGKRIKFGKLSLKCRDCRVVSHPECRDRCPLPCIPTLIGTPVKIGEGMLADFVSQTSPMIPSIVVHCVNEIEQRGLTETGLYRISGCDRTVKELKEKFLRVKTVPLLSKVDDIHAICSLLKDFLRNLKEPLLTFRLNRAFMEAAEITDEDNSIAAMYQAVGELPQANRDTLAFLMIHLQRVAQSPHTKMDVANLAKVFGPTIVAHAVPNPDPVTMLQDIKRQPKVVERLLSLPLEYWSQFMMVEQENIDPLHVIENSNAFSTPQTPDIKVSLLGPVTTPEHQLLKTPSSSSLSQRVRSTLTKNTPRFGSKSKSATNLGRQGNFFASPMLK

[29] = enhancers of respiration in Yfh1-depleted yeast, dose response, Friedreich's ataxia, plus single-dose screen (AID 1465); format: functional;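 further: yeast depleted of Yfh1p frataxin homolog grown on glycerol needing respiration; WST-1 tetrazolium dye reduction as measure of cellular dehydrogenase metabolic activity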
[30] = target: 26S proteasome non-ATPase regulatory subunit 14 (Homo sapiens, UniProt O00487); experiment: inhibition of proteasome subunit RPN11 – biochemical, fluorescence polarization, uHTS hits, confirmation (AID 602368); format: functional
Sequence of 26S proteasome non-ATPase regulatory subunit 14 (O00487 whole entry): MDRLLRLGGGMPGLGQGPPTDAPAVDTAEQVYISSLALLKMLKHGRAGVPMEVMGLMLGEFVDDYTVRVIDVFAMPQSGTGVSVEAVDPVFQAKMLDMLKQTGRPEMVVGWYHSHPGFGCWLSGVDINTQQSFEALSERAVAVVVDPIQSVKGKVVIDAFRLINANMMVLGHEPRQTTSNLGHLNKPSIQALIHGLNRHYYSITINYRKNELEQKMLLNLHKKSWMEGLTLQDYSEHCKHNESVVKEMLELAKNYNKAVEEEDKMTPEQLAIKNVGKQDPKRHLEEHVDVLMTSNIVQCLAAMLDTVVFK

[31] = target: 72 kDa type IV collagenase (Homo sapiens, UniProt P08253); experiment: Dose Response validation of uHTS RPN11 inhibitor hits using a MMP-2 Fluorescence assay.; format: functional
Sequence of 72 kDa type IV collagenase (P08253 whole entry): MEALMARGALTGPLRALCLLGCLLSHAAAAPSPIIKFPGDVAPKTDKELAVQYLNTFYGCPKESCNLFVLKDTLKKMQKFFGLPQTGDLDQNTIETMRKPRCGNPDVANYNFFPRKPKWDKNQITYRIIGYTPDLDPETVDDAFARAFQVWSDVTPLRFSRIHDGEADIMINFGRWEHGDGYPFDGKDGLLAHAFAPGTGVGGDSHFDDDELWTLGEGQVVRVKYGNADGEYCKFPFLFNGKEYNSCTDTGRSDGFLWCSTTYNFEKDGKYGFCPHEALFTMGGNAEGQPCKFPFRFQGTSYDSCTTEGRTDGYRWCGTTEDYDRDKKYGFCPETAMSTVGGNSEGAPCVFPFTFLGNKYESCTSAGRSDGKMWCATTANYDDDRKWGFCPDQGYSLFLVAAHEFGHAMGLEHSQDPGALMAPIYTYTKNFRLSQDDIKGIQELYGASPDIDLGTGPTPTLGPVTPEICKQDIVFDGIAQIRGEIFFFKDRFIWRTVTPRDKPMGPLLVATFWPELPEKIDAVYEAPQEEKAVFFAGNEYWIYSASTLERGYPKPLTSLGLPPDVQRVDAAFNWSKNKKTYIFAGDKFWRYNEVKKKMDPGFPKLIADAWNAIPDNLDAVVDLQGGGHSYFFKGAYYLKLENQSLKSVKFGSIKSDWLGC

Prothrombin = Prothrombin (Bos taurus, UniProt P00735); experiment: thrombin inhibition, dose response, biochemical, fluorescence polarization, uHTS hits (AID 602369); format: functional

Sequence of Sphingosine 1-phosphate receptor 2 (O95136 whole entry): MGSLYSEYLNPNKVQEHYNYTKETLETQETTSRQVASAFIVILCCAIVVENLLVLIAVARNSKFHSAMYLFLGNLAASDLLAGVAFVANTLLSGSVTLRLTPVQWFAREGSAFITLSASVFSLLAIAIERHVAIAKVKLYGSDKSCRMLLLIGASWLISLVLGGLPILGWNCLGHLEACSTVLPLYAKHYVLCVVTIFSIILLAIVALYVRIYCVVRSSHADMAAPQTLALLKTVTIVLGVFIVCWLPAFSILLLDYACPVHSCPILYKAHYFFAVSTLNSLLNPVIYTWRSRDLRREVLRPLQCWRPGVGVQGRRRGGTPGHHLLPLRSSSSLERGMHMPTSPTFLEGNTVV

## Cc1cc(C(=O)CN(C)CC(=O)NC(C)C)c(C)n1Cc1ccccc1
[1]
  EC50: > 30 µM (not active)

## O=C(c1cccc(COc2ccc(Cl)cc2Cl)c1)N1CCN(c2ccccn2)CC1
[2]
  EC50: < 0.1 µM (inconclusive)
[3]
  IC50: > 50 µM (not active)
[4]
  EC50: 0.242 µM (active)
[5]
  EC50: 0.251 µM (active)
HT-1080
  EC50: > 50 µM (not active)
[6]
  EC50: 0.275 µM (active)
[7]
  EC50: 46.5 µM (active)

## COc1ccccc1NC(=O)Nc1nc(CC(=O)N2CCN(c3ccccc3F)CC2)cs1
[8]
  CC50: > 40 µM (active)
[9]
  IC50: > 100 µM (active)

## O=C(Nc1ccccc1)C(c1ccccc1)C1CCCC1 (stereo unspecified)
[10]
  IC50: 12.1 µM (not active)
[11]
  IC50: 6.6 µM (active)

## Cc1cc(C)c(S(=O)(=O)N2CCCCC2)cc1N(C)S(=O)(=O)c1ccc(Cl)cc1
[12]
  AC50: 5.6 µM (active)
Ion channel NompC
  EC50: > 29.9 µM (not active)
[13]
  AC50: 11.2 µM (active)
[14]
  AC50: 7.77 µM (active)
[15]
  AC50: 8.27 µM (active)
Mucolipin-3
  EC50: 1.37 µM (active)

## CC1=CC2=NC(=O)/C(=C\c3cn(C)c4ccccc34)C(=N)N2O1
[16]
  IC50: > 111 µM (not active)
[17]
  IC50: 8.61 µM (active)

## COc1ccc(Sc2ccc(NC(=O)c3ccccc3Cl)cc2C#N)cc1
Streptococcus [18]
  EC50: > 150 µM (not active)
Streptokinase A [19]
  EC50: 3.14 µM (active)
Streptococcus [20]
  EC50: > 500 µM (not active)
[21]
  IC50: > 9.26 µM (active)
[22]
  EC50: 2.27 µM (active)
Streptokinase A [23]
  EC50: 4.98 µM (active)
Cytochrome P450 2C9
  AC50: 2.51 µM (inconclusive)
[24]
  EC50: 1.21 µM (active)
[25]
  IC50: > 109 µM (inactive)

## c1ccc2c(c1)Nc1ccccc1S2 [PHENOTHIAZINE]
NADPH oxidase 1 [26]
  IC50: 0.349 µM (active)
NADPH oxidase 1 [27]
  IC50: 0.369 µM (active)
[28]
  IC50: 18.5 µM (active)

## CC(C)NC(=S)N/N=C/c1sc(N2CCCCC2)nc1-c1cccs1
[29]
  EC50: > 100 µM (active)
[30]
  IC50: 9.24 µM (active)
[31]
  IC50: 9.6 µM (active)
Prothrombin
  IC50: 20.1 µM (active)
